# Entries after “also recorded” stand apart in the source; their conditions may differ.
# Legend:
# [1] = test system: GluR2 mRNA; assay: GluR2 mRNA in situ hybridization in hippocampal slice cultures; type: cell-based, rat; details: 48 h
# [2] = test system: mature BDNF protein; assay: Western blot for mature BDNF protein in organotypic hippocampal cultures; type: cell-based, rat; details: 24 h; CX614 50 μM
# Description: Cultured hippocampal slices were prepared from rat pups (9 d postnatal) essentially as described by Lauterborn et al. (Lauterborn et al., 2000, J Neurosci 20(1):8-21). Slices were explanted onto Millicel-CM biomembrane inserts (Millipore, Bedford, Mass.; 6 slices/membrane) in a 6-well culture cluster plate (Corning, Cambridge, Mass.) containing sterile media (1 ml/well) consisting of minimum essential media, 30 mM dextrose, 30 mM HEPES, 5 mM Na2HCO3, 3 mM glutamine, 0.5 mM ascorbic acid, 2 mM CaCl2, 2.5 mM MgSO4, 1 mg/l insulin and 20% horse serum (pH 7.2; all reagents from Sigma, St. Louis, Mo.) and maintained for 10-18 d in a humidified incubator at 37° C. in 5% CO2. Media was changed three times/week. […]
# For protein determinations, drug-treated and vehicle-treated hippocampal slice cultures were homogenized in RIPA (Radio-Immunoprecipitation Assay) buffer containing 10 mM Tris, pH 7.2, 158 mM NaCl, 1 mM EDTA, 0.1% SDS, 1% sodium deoxycholate, 1% triton-X, Complete Protease Inhibitor Cocktail (Roche Diagnostics; Indianapolis, Ind.), and Phosphatase Inhibitor Cocktails 1 and 2 (P2850 and 5726, Sigma), normalized for protein content using the Bio-Rad protein assay, and analyzed by Western blot analysis. […] Binding of anti-BDNF antibodies to BDNF was detected by enhanced chemiluminescence. Band densities were quantified using ImageQuant software (Molecular Dynamics, Sunnyvale, Calif.). […]
# [3] = test system: BDNF mRNA; assay: BDNF mRNA in situ hybridization in cultured rat hippocampal slices; type: cell-based; details: for hybridization to BDNF mRNA, principal hippocampal cell layers, entorhinal cortex, neocortex: CX614 50 μM
# Description: Cultured hippocampal slices were prepared from rat pups (9 d postnatal) essentially as described by Lauterborn et al. (Lauterborn et al., 2000, J Neurosci 20(1):8-21). Slices were explanted onto Millicel-CM biomembrane inserts (Millipore, Bedford, Mass.; 6 slices/membrane) in a 6-well culture cluster plate (Corning, Cambridge, Mass.) containing sterile media (1 ml/well) consisting of minimum essential media, 30 mM dextrose, 30 mM HEPES, 5 mM Na2HCO3, 3 mM glutamine, 0.5 mM ascorbic acid, 2 mM CaCl2, 2.5 mM MgSO4, 1 mg/l insulin and 20% horse serum (pH 7.2; all reagents from Sigma, St. Louis, Mo.) and maintained for 10-18 d in a humidified incubator at 37° C. in 5% CO2. Media was changed three times/week. All experiments with the […]® (Cortex Pharmaceuticals) and mGluR5 antagonist (gift from FRAXA Research Foundation) began on days 11-12 in culture and were performed essentially as described by Lauterborn et al. (Lauterborn et al., 2000, J Neurosci 20(1):8-21) and Huber et al. (Huber et al., 2002, Proc Natl Acad Sci USA 99(11):7746-50). […]® were dissolved in 100% dimethylsulfoxide (DMSO; Sigma) and stored at -20° C. MPEP was dissolved in 100% DMSO. […] For controls, cultures were either untreated or treated with equivalent concentrations of vehicle (i.e., DMSO at final concentrations of 1:2,000-1:10,000). […] The cRNA to BDNF exon V was generated from PvuII-digested recombinant plasmid pRl 112-8 (Isackson et al., 1991, Neuron 6:937-948), yielding a 540 base length probe with 384 bases complementary to BDNF exon V-containing mRNA (Timmusk et al., 1993, Neuron 10:475-489). In situ hybridization was performed essentially as described by Lauterborn et al. (Lauterborn et al., 2000, J Neurosci 20(1):8-21; Lauterborn et al., 1994, Mol Cell Neurosci 5:46-62). Briefly, for in situ hybridization analyses, treatments were terminated by slice fixation with 4% paraformaldehyde in 0.1 M phosphate buffer, pH 7.2 (PPB). Cultures were re-sectioned parallel to the broad explant surface, slide-mounted, and processed for the in situ hybridization localization of BDNF mRNA using the ^35S-labeled BDNF cRNA probe described above. Following hybridization, the tissue was processed for film (Kodak Biomax) autoradiography. Quantification of in situ hybridization was performed essentially as described by Lauterborn et al. (Lauterborn et al., 2000, J Neurosci 20(1):8-21). Briefly, for quantification of in situ hybridization, hybridization densities were measured from film autoradiograms, with labeling densities calibrated relative to film images of ^14C-labeled standards (μCi/g), using the AIS system (Imaging Research Inc.). Significance was determined using the two-way ANOVA followed by Student-Newman-Keuls (SNK) or Student's t tests for individual comparisons.
# [4] = test system: GluR1 mRNA; assay: GluR1 mRNA in situ hybridization in hippocampal slice cultures; type: cell-based, rat; details: 48 h
# [5] = molecular target: mGluR5 (Homo sapiens, UniProt P41594); details: cited from earlier work
# [6] = test system: rat fear-potentiated startle model of anxiety; details: cited from earlier work
# [7] = CX614 (20 μM in FIG. 6 legend, 50 μM in Example 6), MPEP 50 μM or both
# mGluR5, sequence (P41594 21-1212): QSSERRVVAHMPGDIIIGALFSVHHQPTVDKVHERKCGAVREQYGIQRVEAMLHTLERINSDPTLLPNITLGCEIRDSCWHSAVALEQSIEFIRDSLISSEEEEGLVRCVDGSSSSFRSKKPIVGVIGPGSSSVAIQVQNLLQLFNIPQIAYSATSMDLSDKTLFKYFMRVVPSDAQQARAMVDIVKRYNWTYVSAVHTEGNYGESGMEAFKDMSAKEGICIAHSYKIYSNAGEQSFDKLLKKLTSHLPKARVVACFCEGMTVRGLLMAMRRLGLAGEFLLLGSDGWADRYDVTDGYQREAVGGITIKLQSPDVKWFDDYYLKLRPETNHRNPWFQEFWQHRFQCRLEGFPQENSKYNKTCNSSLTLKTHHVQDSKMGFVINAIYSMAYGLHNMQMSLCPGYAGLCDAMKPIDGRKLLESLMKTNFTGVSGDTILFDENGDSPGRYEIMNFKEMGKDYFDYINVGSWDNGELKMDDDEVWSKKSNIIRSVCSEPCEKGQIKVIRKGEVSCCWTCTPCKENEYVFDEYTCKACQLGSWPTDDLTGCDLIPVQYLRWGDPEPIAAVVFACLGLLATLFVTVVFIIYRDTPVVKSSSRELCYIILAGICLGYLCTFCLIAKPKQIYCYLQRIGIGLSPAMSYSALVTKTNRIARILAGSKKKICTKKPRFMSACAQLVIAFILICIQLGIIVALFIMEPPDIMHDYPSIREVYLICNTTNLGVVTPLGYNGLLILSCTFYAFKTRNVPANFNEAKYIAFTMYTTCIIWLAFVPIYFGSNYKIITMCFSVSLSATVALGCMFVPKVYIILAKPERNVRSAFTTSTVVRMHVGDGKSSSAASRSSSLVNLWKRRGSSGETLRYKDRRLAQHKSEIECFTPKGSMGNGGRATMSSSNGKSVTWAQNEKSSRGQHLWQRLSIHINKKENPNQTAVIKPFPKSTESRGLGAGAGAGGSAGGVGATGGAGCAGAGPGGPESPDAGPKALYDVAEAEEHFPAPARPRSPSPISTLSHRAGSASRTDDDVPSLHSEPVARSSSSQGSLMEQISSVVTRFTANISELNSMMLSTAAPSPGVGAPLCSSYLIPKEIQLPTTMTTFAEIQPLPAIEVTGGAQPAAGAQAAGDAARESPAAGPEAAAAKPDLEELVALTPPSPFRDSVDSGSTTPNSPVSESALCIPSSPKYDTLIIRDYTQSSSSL
compound,measurement,setting,value
"O=C1c2cc3c(cc2OC2CCCN12)OCCO3 (stereo not shown) [CX614, 2H,3H,6aH-pyrrolidino[2″,1″-3′,2′]1,3-oxazino[6′,5′-5,4]benzo[e]1,4-dioxan-10-one]","reduction of GluR2 mRNA levels, CA1 stratum pyramidale",[1]; CX614 20 μM (FIG. 6 legend),~50%
same,"reduction of GluR2 mRNA levels, CA1 pyramidal cell layer, compared to control",[1]; CX614 50 μM (Example 6),40-45%
same,mature BDNF protein levels above control levels,[2],133%
same,"BDNF cRNA labeling, granule cells","[3]; 3 h, 10 μM CX614",modest increase
same,"BDNF mRNA levels in CA1 stratum pyramidale, effect in words","[3]; 3 h, CX614 50 μM with or without MPEP 50 μM",small but non-significant increased
same,"increase in BDNF mRNA, hippocampal granule cells (stratum granulosum)","[3]; 3 h, CX614 50 μM with or without MPEP 50 μM, vs control",6.5 fold
same,"BDNF mRNA, granule cells","[3]; 3 h, CX614 10, 20 or 50 μM",increased by all three doses
same,"BDNF mRNA, pyramidal cells of CA1 and CA3","[3]; 3 h, CX614 10, 20 or 50 μM",only increased with the 50 μM concentration; also recorded: only 50 μM CX614 elicited significant increases
same,"BDNF cRNA labeling, granule cells","[3]; 3 h, higher doses of CX614 (20, 50 μM)",more dramatic increases
same,"BDNF mRNA levels, CA1 pyramidal cells","[3]; 24 h, CX614 20 μM with or without MPEP 50 μM",small but non-significant increase
same,"hybridization to BDNF mRNA, principal hippocampal cell layers, entorhinal cortex, neocortex",[3]; 6 h,increased; also recorded: markedly elevated
same,"hybridization to BDNF mRNA, principal hippocampal cell layers, entorhinal cortex, neocortex",[3]; 24 h continuous treatment,still elevated above control densities; also recorded: begin to decline
same,"reduction of GluR1 mRNA levels, CA1 stratum pyramidale",[4]; CX614 20 μM (FIG. 6 legend),40%
same,"reduction of GluR1 mRNA levels, CA1 pyramidal cell layer, compared to control",[4]; CX614 50 μM (Example 6),40-45%
"C=Cc1cncc(C#Cc2csc(C)n2)c1 [Iso et al. compound 59, 3-[(2-methyl-4-thiazoly)ethynyl]-5-vinylpyridine]",antagonistic potency relative to MTEP,[5],230 times
"Cc1cccc(C#Cc2ccccc2)n1 [MPEP, 2-methyl-6-(phenylethynyl)pyridine]","GluR2 mRNA levels, CA1, effect in words",[1]; [7],no significant effect; also recorded: small but non-significant increase
same,"BDNF mRNA levels in the granule cell layer / any field, effect in words","[3]; 3 h, MPEP 50 μM alone",unaffected; also recorded: no effect in any field
same,"GluR1 mRNA levels, CA1, effect in words",[4]; [7],no significant effect
"Cc1nc(C#Cc2cccnc2)cs1 [MTEP, 3-[(2-methyl-1,3-thiazol-4-yl)ethynyl]pyridine]",potency relative to MPEP,[6],5 fold

# Source: patent US20130123248A1, “PHARMACOLOGICAL MODULATION OF POSITIVE AMPA RECEPTOR MODULATOR EFFECTS ON NEUROTROPHIN EXPRESSION” (The Regents of the University of California, priority 2006, published 2013)
